{
  "source": "patent US11591341B2",
  "about": "(ALIGOS THERAPEUTICS, INC., priority 2019, dated 2023)",
  "data": [
    {"test_system": "HBV", "test": "HBV-DNA Antiviral Assay Using HepG2.117 Cells (intracellular HBV DNA by qPCR)", "format": "cell-based, hepatitis B virus (genotype D)", "conditions": "Hepatitis B virus, HepG2.117", "procedure,_shortened": "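HepG2.117 cells (genotype D HBV, Tet-off) were induced by doxycycline withdrawal and treated for 3 days with 9 concentrations in 4-fold dilution, 2% DMSO final. Intracellular HBV DNA was measured by qPCR against a standard curve, with ATPlite viability read in parallel. EC50, EC90 and CC50 came from fits against the DMSO control.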", "units": {"EC50": "nM"}, "values": [
      {"smiles": "O=C(NCc1ccccc1-c1ncccn1)c1c2n(c(=O)n1-c1ccc(OC3CC3)cc1)CCN(C(=O)c1ccc(Br)c(Cl)c1)C2", "note": "[Example 376, 7-(4-bromo-3-chloro-benzoyl)-2-[4-(cyclopropoxy)phenyl]-3-oxo-N-[(2-pyrimidin-2-ylphenyl)methyl]-6,8-dihydro-5H-imidazo[1,5-a]pyrazine-1-carboxamide]", "EC50": "< 100"},
      {"smiles": "O=C(NCc1ccccc1)c1c2n(c(=O)n1-c1ccc(OCC(F)F)cc1)CCN(C(=O)c1ccc(Br)c(Cl)c1)C2", "note": "[Example 260, N-benzyl-7-(4-bromo-3-chloro-benzoyl)-2-[4-(2,2-difluoroethoxy)phenyl]-3-oxo-6,8-dihydro-5H-imidazo[1,5-a]pyrazine-1-carboxamide]", "EC50": "500 to 5000"},
      {"smiles": "C[C@@H](NC(=O)c1c2n(c(=O)n1-c1ccc(OCC(F)(F)F)cc1)CCN(C(=O)c1ccc(Br)c(Cl)c1)C2)c1ccccc1F", "note": "(stereo in doubt) [Example 262, 7-(4-bromo-3-chloro-benzoyl)-3-oxo-N-[rac-(1R)-1-(2-fluorophenyl)ethyl]-2-[4-(2,2,2-trifluoroethoxy)phenyl]-6,8-dihydro-5H-imidazo[1,5-a]pyrazine-1-carboxamide]", "EC50": "100 to 500"},
      {"smiles": "CC(C)Oc1ccc(-n2c(C(=O)NCc3ccccc3)c3n(c2=O)CCN(C(=O)c2ccc(Cl)c(Cl)c2)C3)cc1", "note": "[Example 52]", "EC50": "500 to 5000"},
      {"smiles": "COc1ccc(-n2c(C(=O)NCc3ccccn3)c3n(c2=O)CCN(C(=O)c2ccc(Br)c(Cl)c2)C3)cc1", "note": "[Example 191, 7-(4-bromo-3-chloro-benzoyl)-2-(4-methoxyphenyl)-3-oxo-N-(2-pyridylmethyl)-6,8-dihydro-5H-imidazo[1,5-a]pyrazine-1-carboxamide]", "EC50": "500 to 5000"},
      {"smiles": "COc1ccc(CN2Cc3c4n(c(=O)n3C[C@H](O)C2)CCN(C(=O)c2ccc(Br)c(Cl)c2)C4)c(F)c1", "note": "(stereo in doubt) [Example 288, rac-(11R)-4-(4-bromo-3-chloro-benzoyl-13-[(2-fluoro-4-methoxy-phenyl)methyl]-11-hydroxy-4,7,9,13-tetrazatricyclo[7.5.0.0^2,7]tetradec-1-ene-8,14-dione]", "EC50": "100 to 500"},
      {"smiles": "COc1ccc([C@H](C)NC(=O)c2c3n(c(=O)n2-c2ccc(OC4CC4)cc2)C[C@H](C)N(C(=O)c2ccc(Br)c(Cl)c2)C3)cc1", "note": "(mixture of isomers) [Example 436, (6SR)-7-(4-bromo-3-chloro-benzoyl)-2-[4-(cyclopropoxy)phenyl]-N-[(1S)-1-(4-methoxyphenyl)ethyl]-6-methyl-3-oxo-6,8-dihydro-5H-imidazo[1,5-a]pyrazine-1-carboxamide]", "EC50": "< 100"},
      {"smiles": "C[C@H](NC(=O)c1c2n(c(=O)n1-c1ccc(OC3CC3)cc1)CCN(C(=O)c1ccc(Br)c(Cl)c1)C2)c1ccc(OCC(N)=O)cc1-n1cccn1", "note": "(racemic) [Example 378, 7-(4-bromo-3-chloro-benzoyl)-2-[4-(cyclopropoxy)phenyl]-3-oxo-N-[rac-(1S)-1-[4-(2-amino-2-oxo-ethoxy)-2-pyrazol-1-yl-phenyl]ethyl]-6,8-dihydro-5H-imidazo[1,5-a]pyrazine-1-carboxamide]", "EC50": "> 5000"},
      {"smiles": "NC(=O)c1ccc(-n2c(C(=O)NCc3ccccc3)c3n(c2=O)CCN(C(=O)c2ccc(Br)c(Cl)c2)C3)cc1", "note": "[Example 25, N-benzyl-7-(4-bromo-3-chloro-benozyl)-2-(4-carbamoylphenyl)-3-oxo-6,8-dihydro-5H-imidazo[1,5-a]pyrazine-1-carboxamide]", "EC50": "> 5000"},
      {"smiles": "COc1ccc(C(C)NC(=O)c2c3n(c(=O)n2-c2ccc(-n4cccn4)cc2)CCN(C(=O)c2ccc(Br)c(Cl)c2)C3)c(F)c1", "note": "(racemic) [Example 413, 7-(4-bromo-3-chloro-benzoyl)-3-oxo-2-(4-pyrazol-1-ylphenyl)-N-[rac-(1R)-1-(2-fluoro-4-methoxy-phenyl)ethyl]-6,8-dihydro-5H-imidazo[1,5-a]pyrazine-1-carboxamide]", "EC50": "< 100"},
      {"smiles": "Cn1ncc2cc(-n3c(C(=O)NCc4ccccc4)c4n(c3=O)CCN(C(=O)c3ccc(Br)c(Cl)c3)C4)ccc21", "note": "[Example 364, N-benzyl-7-(4-bromo-3-chloro-benzoyl)-2-(1-methylindazol-5-yl)-3-oxo-6,8-dihydro-5H-imidazo[1,5-a]pyrazine-1-carboxamide]", "EC50": "100 to 500"},
      {"smiles": "CS(=O)(=O)c1cccc(-n2c(C(=O)NCc3ccccc3)c3n(c2=O)CCN(C(=O)c2ccc(Br)c(Cl)c2)C3)c1", "note": "[Example 46, N-benzyl-7-(4-bromo-3-chloro-benzoyl)-2-(3-methylsulfonylphenyl)-3-oxo-6,8-dihydro-5H-imidazo[1,5-a]pyrazine-1-carboxamide]", "EC50": "> 5000"},
      {"smiles": "N#Cc1ccc(CNC(=O)c2c3n(c(=O)n2-c2ccc(OCC(F)(F)F)cc2)CCN(C(=O)c2ccc(Br)c(Cl)c2)C3)c(F)c1", "note": "[Example 287, 7-(4-bromo-3-chloro-benzoyl)-N-[(4-cyano-2-fluoro-phenyl)methyl]-3-oxo-2-[4-(2,2,2-trifluoroethoxy)phenyl]-6,8-dihydro-5H-imidazo[1,5-a]pyrazine-1-carboxamide]", "EC50": "500 to 5000"},
      {"smiles": "CC(NC(=O)c1c2n(c(=O)n1-c1ccc(OC3CC3)cc1)CCN(C(=O)c1ccc(Br)c(Cl)c1)C2)c1cccc2nccnc12", "note": "(racemic) [Example 382, 7-(4-bromo-3-chloro-benzoyl)-2-[4-(cyclopropoxy)phenyl]-3-oxo-N-[rac-(1S)-1-quinoxalin-5-ylethyl]-6,8-dihydro-5H-imidazo[1,5-a]pyrazine-1-carboxamide]", "EC50": "< 100"},
      {"smiles": "C[C@@H]1Cn2c(c3n(c2=O)C[C@H](F)CN(Cc2ccccc2)C3=O)CN1C(=O)c1ccc(Br)c(Cl)c1", "note": "(stereo in doubt) [Example 374, rac-(5R,11R)-13-benzyl-4-(4-bromo-3-chloro-benzoyl)-11-fluoro-5-methyl-4,7,9,13-tetrazatricyclo[7.5.0.0^2,7]tetradec-1-ene-8,14-dione]", "EC50": "100 to 500"},
      {"smiles": "C[C@H](NC(=O)c1c2n(c(=O)n1-c1ccc(OCC(F)(F)F)cc1)CCN(C(=O)c1ccc(Br)c(Cl)c1)C2)c1ccc(O[C@H](C)C(N)=O)cc1F", "note": "(stereo in doubt) [Example 361, 7-(4-bromo-3-chloro-benzoyl)-3-oxo-N-[rac-(1S)-1-[2-fluoro-4-[rac-(1R)-2-amino-1-methyl-2-oxo-ethoxy]phenyl]ethyl]-2-[4-(2,2,2-trifluoroethoxy)phenyl]-6,8-dihydro-5H-imidazo[1,5-a]pyrazine-1-carboxamide]", "EC50": "100 to 500"},
      {"smiles": "O=C(NCc1ccccc1)c1c2n(c(=O)n1-c1ccc(N3CCCC3=O)cc1)CCN(C(=O)c1ccc(Br)c(Cl)c1)C2", "note": "[Example 412, N-benzyl-7-(4-bromo-3-chloro-benzoyl)-3-oxo-2-[4-(2-oxopyrrolidin-1-yl)phenyl]-6,8-dihydro-5H-imidazo[1,5-a]pyrazine-1-carboxamide]", "EC50": "100 to 500"},
      {"smiles": "COc1ccc(CNC(=O)c2c3n(c(=O)n2-c2ccc(OC(C)C)cc2)CCN(C(=O)c2ccc(Br)c(Cl)c2)C3)c(F)c1", "note": "[Example 218, 7-(4-bromo-3-chloro-benzoyl)-N-[(2-fluoro-4-methoxy-phenyl)methyl]-2-(4-isopropoxyphenyl)-3-oxo-6,8-dihydro-5H-imdiazo[1,5-a]pyrazine-1-carboxamide]", "EC50": "< 100"},
      {"smiles": "O=C(NCc1ccccc1)c1c2n(c(=O)n1-c1ccc3[nH]ncc3c1)CCN(C(=O)c1ccc(Br)c(Cl)c1)C2", "note": "[Example 298, N-benzyl-7-(4-bromo-3-chloro-benzoyl)-2-(1H-indazol-5-yl)-3-oxo-6,8-dihydro-5H-imidazo[1,5-a]pyrazine-1-carboxamide]", "EC50": "500 to 5000"},
      {"smiles": "O=C(NCc1ccccc1)c1c2n(c(=O)n1-c1ccc(-n3cccn3)cc1)CCN(C(=O)c1ccc(Br)c(Cl)c1)C2", "note": "[Example 271, N-benzyl-7-(4-bromo-3-chloro-benzoyl)-3-oxo-2-(4-pyrazol-1-ylphenyl)-6,8-dihydro-5H-imidazo[1,5-a]pyrazine-1-carboxamide]", "EC50": "100 to 500"},
      {"smiles": "C[C@@H](NC(=O)c1c2n(c(=O)n1-c1ccc(-n3cccn3)cc1)CCN(C(=O)c1ccc(Br)c(Cl)c1)C2)c1ccccc1F", "note": "(stereo in doubt) [Example 405, 7-(4-bromo-3-chloro-benzoyl)-3-oxo-2-(4-pyrazol-1-ylphenyl)-N-[rac-(1R)-1-(2-fluorophenyl)ethyl]-6,8-dihydro-5H-imidazo[1,5-a]pyrazine-1-carboxamide]", "EC50": "< 100"},
      {"smiles": "O=C(NCc1ccccc1)c1c2n(c(=O)n1-c1ccc(N3CCC3=O)cc1)CCN(C(=O)c1ccc(Br)c(Cl)c1)C2", "note": "[Example 419, N-benzyl-7-(4-bromo-3-chloro-benzoyl)-3-oxo-2-[4-(2-oxoazetidin-1-yl)phenyl]-6,8-dihydro-5H-imidazo[1,5-a]pyrazine-1-carboxamide]", "EC50": "500 to 5000"},
      {"smiles": "C[C@H]1Cn2c(c(C(=O)NCc3ccccc3-n3cncn3)n(-c3ccc(OC4CC4)cc3)c2=O)CN1C(=O)c1ccc(Br)c(Cl)c1", "note": "(stereo in doubt) [Example 448, rac-(6S)-7-(4-bromo-3-chloro-benzoyl)-2-[4-(cyclopropoxy)phenyl]-6-methyl-3-oxo-N-[[2-(1,2,4-triazol-1-yl)phenyl]methyl]-6,8-dihydro-5H-imidazo[1,5-a]pyrazine-1-carboxamide]", "EC50": "< 100"},
      {"smiles": "COc1ccc(-n2c(C(=O)NCc3ccnnc3)c3n(c2=O)CCN(C(=O)c2ccc(Cl)c(Cl)c2)C3)cc1", "note": "[Example 53, 7-(3,4-dichlorobenzoyl)-2-(4-methoxyphenyl)-3-oxo-N-(pyridazin-4-ylmethyl)-6,8-dihydro-5H-imidazo[1,5-a]pyrazine-1-carboxamide]", "EC50": "> 5000"},
      {"smiles": "COc1ccc(CNC(=O)c2c3n(c(=O)n2CCc2ccccc2)CCN(C(=O)c2ccc(Br)c(Cl)c2)C3)cc1", "note": "[Example 15, 7-(4-bromo-3-chlorobenzoyl)-N-[(4-methoxyphenyl)methyl]-3-oxo-2-(2-phenylethyl)-5H,6H,8H-imidazo[1,5-a]pyrazine-1-carboxamide]", "EC50": "> 5000"},
      {"smiles": "O=C(NCc1ccccc1)c1c2n(c(=O)n1-c1ccc3sccc3c1)CCN(C(=O)c1ccc(Br)c(Cl)c1)C2", "note": "[Example 248]", "EC50": "100 to 500"}
    ]}
  ]
}
